The values below come from patent publication US11040028B2, “Penicinotam derivative, preparation method and use thereof” (OCEAN UNIVERSITY OF CHINA, priority 2017, dated 2021).

Type in all cases: cell-based
For test [1], the system named is BHK-21 cells. The experiment in a line: Anti-fibrosis activity test: inhibition of BHK-21 cell proliferation (CCK-8). The conditions noted are these: Mesocricetus auratus, BHK-21, 48 h, CCK-8, 48 hours after administration. An outline of the steps:
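Read-out: CCK-8 absorbance at 450 nm after 2 h, giving proliferation inhibition (1−Ai/Ao)×100% versus blank control, from which IC50 was derived. Cells had been treated with compounds for 48 h after 24 h adherence at 37° C. Pirfenidone served as positive control.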

In test [2] the test system is mouse macrophages (RAW264.7). Description: Lipopolysaccharide-induced NO secretion in macrophages (Griess). The conditions noted are these: Mus musculus, RAW264.7, 24 h, RAW264.7, LPS 1 μg/ml, a/b isomers given as first/second symbol, read-out: IC50 (μM), inhibition of lipopolysaccharide-induced NO secretion in macrophages. An outline of the steps:
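LPS 1 μg/ml, 24 h, RAW264.7 (DMEM/10% FBS); cpds at varied concs. Supernatant NO by Griess, A548; % inhibition vs blank medium.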

For test [3], the system named is cardiac fibroblast RAT-iCell-C002. The experiment in a line: Anti-fibrosis activity test: inhibition of proliferation of cardiac fibroblast RAT-iCell-C002 (CCK-8). The conditions noted are these: Cardiac fibroblast, 48 h, cardiac fibroblast RAT-iCell-C002, CCK-8, 48 hours. The method, boiled down:
(§1)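 After one day of adherence at 37° C in 5% CO2, cells (seeded at 2×10^4 cells/mL) received the compounds for two days in triplicate. Inhibition of proliferation was quantified with CCK-8 at 450 nm, with IC50 calculated from IR = (1−Ai/Ao)×100%.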

In test [4] the test system is human lung fibroblasts HFL1. The experiment in a line: Anti-fibrosis activity test: inhibition of proliferation of human lung fibroblasts HFL1 (CCK-8). To be noted: Homo sapiens, HFL1, 48 h, human lung fibroblasts HFL1, CCK-8, 48 hours. An outline of the steps: as §1
Test [5] relates to human dermal fibroblasts CCC-ESF-1. Description: Anti-fibrosis activity test: inhibition of proliferation of human dermal fibroblasts CCC-ESF-1 (CCK-8). The conditions noted are these: Fibroblast; human dermal fibroblasts CCC-ESF-1, CCK-8, 48 hours. An outline of the steps:
as §1

In test [6] the test system is human hepatic stellate cells LX-2. The experiment in a line: Anti-fibrosis activity test: inhibition of proliferation of human hepatic stellate cells LX-2 (CCK-8). The conditions noted are these: Homo sapiens, 48 h, human hepatic stellate cells LX-2, CCK-8, 48 hours. The method, boiled down: as §1
The test system of test [7] is human embryonic lung fibroblast IMR-90. The experiment in a line: Anti-fibrosis activity test: inhibition of proliferation of human embryonic lung fibroblast IMR-90 (CCK-8). The conditions noted are these: human embryonic lung fibroblast IMR-90, CCK-8, 48 hours. The method, boiled down:
as §1

Test [8] deals with human fibrosarcoma cells HT-1080. Description: Anti-fibrosis activity test: inhibition of proliferation of human fibrosarcoma cells HT-1080 (CCK-8). To be noted: Homo sapiens, HT-1080, 48 h, human fibrosarcoma cells HT-1080, CCK-8, 48 hours. The method, boiled down: as §1

Consider `O=C1c2c(n(Cc3ccc(Cl)cc3)c3c(C(F)(F)F)cccc3c2=O)-c2cccn21` [Compound 450a, 4-(4-Chlorobenzyl)-5-(trifluoromethyl)-9H-pyrrolizino[1,2-b]quinoline-9,10(4H)-dione], for which the IC50 lay within 0.05 to 5 mM in test [1]; 1 to 10 µM in test [2]; 0.05 to 5 mM in test [3]; 0.05 to 5 mM in test [4]; 0.05 to 5 mM in test [5]; 0.05 to 5 mM in test [6]. For the same molecule, the half-maximal inhibitory concentration (IC50) in test [7] lay within 0.05 to 5 mM; in test [8], 5 to 20 mM.
Consider `O=C1c2c(nc3c(C(F)(F)F)cccc3c2OCc2ccc(Cl)cc2)-c2cccn21` [Compound 450b, 9-((4-chlorobenzyl)oxy)-5-(trifluoromethyl)-10H-pyrrolizino[1,2-b]quinolin-10-one], for which the IC50 in test [1] lay within 0.05 to 5 mM; in test [2], 1 to 10 µM; in test [3], 0.05 to 5 mM; in test [4], 0.05 to 5 mM; in test [5] it was 0.05 to 5 mM; in test [6] it was 0.05 to 5 mM. Further, the IC50 in test [7] was in the range of 0.05 to 5 mM; in test [8], 5 to 20 mM.
As to `O=C1c2c(n(Cc3ccc(Cl)cc3)c3c(Cl)cccc3c2=O)-c2cccn21` [Compound 451a, 5-Chloro-4-(4-chlorobenzyl)-9H-pyrrolizino[1,2-b]quinoline-9,10(4H)-dione], the IC50 in test [1] was 0.05 to 5 mM; in test [2], 1 to 10 µM; in test [3], 0.05 to 5 mM; in test [4], less than 0.05 mM; in test [5], 0.05 to 5 mM; in test [6], 0.05 to 5 mM. In addition, the IC50 in test [7] and in test [8] was 0.05 to 5 mM each time.
`O=C1c2c(nc3c(Cl)cccc3c2OCc2ccc(Cl)cc2)-c2cccn21` [Compound 451b, 5-chloro-9-((4-chlorobenzyl)oxy)-10H-pyrrolizino[1,2-b]quinolin-10-one]: the IC50 in test [1] is 0.05 to 5 mM; in test [2] it was 1 to 10 µM; in test [3] it was 0.05 to 5 mM; in test [4] it was less than 0.05 mM; in test [5], 0.05 to 5 mM; in test [6] it was 0.05 to 5 mM. Also, the IC50 in test [7] and in test [8] was 0.05 to 5 mM throughout.
In the case of `O=C1c2c(n(Cc3ccc(F)cc3)c3c(F)cccc3c2=O)-c2cccn21` [Compound 452a, 5-Fluoro-4-(4-fluorobenzyl)-9H-pyrrolizino[1,2-b]quinoline-9,10(4H)-dione], the IC50 in test [1] was 0.05 to 5 mM; in test [2], 1 to 10 µM; in test [3], 0.05 to 5 mM; in test [4] it was 0.05 to 5 mM; in test [5] it was 0.05 to 5 mM; in test [6], less than 0.05 mM. The IC50 in test [7] and in test [8] was 0.05 to 5 mM throughout.
On to `O=C1c2c(nc3c(F)cccc3c2OCc2ccc(F)cc2)-c2cccn21` [Compound 452b, 5-fluoro-9-((4-fluorobenzyl)oxy)-10H-pyrrolizino[1,2-b]quinolin-10-one], for which the IC50 lay within 0.05 to 5 mM in test [1]; 1 to 10 µM in test [2]; 0.05 to 5 mM in test [3]; 0.05 to 5 mM in test [4]; 0.05 to 5 mM in test [5]; 0.05 to 5 mM in test [6]. The half-inhibitory concentration (IC50) in test [7] and in test [8] was 0.05 to 5 mM in each case.
With `O=C1c2c(n(Cc3ccc(Cl)cc3)c3c(F)cccc3c2=O)-c2cccn21` [Compound 453a, 4-(4-Chlorobenzyl)-5-fluoro-9H-pyrrolizino[1,2-b]quinoline-9,10(4H)-dione], the IC50 fell in the range of 0.05 to 5 mM in test [1]; 0.1 to 1 µM in test [2]; 0.05 to 5 mM in test [3]; 0.05 to 5 mM in test [4]; 0.05 to 5 mM in test [5]; 0.05 to 5 mM in test [6]. The concentration for half-maximal inhibition (IC50) in test [7] and in test [8] was 0.05 to 5 mM in each case.
With `O=C1c2c(nc3c(F)cccc3c2OCc2ccc(Cl)cc2)-c2cccn21` [Compound 453b, 9-((4-chlorobenzyl)oxy)-5-fluoro-10H-pyrrolizino[1,2-b]quinolin-10-one], the IC50 in test [1] is 0.05 to 5 mM; in test [2], 10 to 50 µM; in test [3], 0.05 to 5 mM; in test [4] it was 0.05 to 5 mM; in test [5], 0.05 to 5 mM; in test [6], 0.05 to 5 mM. Also, the 50% inhibitory concentration (IC50) in test [7] and in test [8] was 0.05 to 5 mM each time.
For the molecule `N#Cc1cccc2c(=O)c3c(n(Cc4cccc(F)c4)c12)-c1cccn1C3=O` [Compound 454a, 4-(3-Fluorobenzyl)-9,10-dioxo-4,10-dihydro-9H-pyrrolizino[1,2-b]quinoline-5-carbonitrile], the IC50 lay within 0.05 to 5 mM in test [1]; 0.1 to 1 µM in test [2]; 0.05 to 5 mM in test [3]; 0.05 to 5 mM in test [4]; 0.05 to 5 mM in test [5]; 0.05 to 5 mM in test [6]. The IC50 in test [7] and in test [8] was 0.05 to 5 mM in each case.
Regarding `N#Cc1cccc2c(OCc3cccc(F)c3)c3c(nc12)-c1cccn1C3=O` [Compound 454b, 9-((3-fluorobenzyl)oxy)-10-oxo-10H-pyrrolizino[1,2-b]quinoline-5-carbonitrile], the IC50 in test [1] lay within 0.05 to 5 mM; in test [2], 1 to 10 µM; in test [3], 0.05 to 5 mM; in test [4], 0.05 to 5 mM; in test [5] it was 0.05 to 5 mM; in test [6] it was 0.05 to 5 mM. Further, the IC50 in test [7] and in test [8] was 0.05 to 5 mM in each case.
Take `O=C1c2c(n(Cc3cccc(Cl)c3)c3c(C(F)(F)F)cccc3c2=O)-c2cccn21` [Compound 455a, 4-(3-Chlorobenzyl)-5-(trifluoromethyl)-9H-pyrrolizino[1,2-b]quinoline-9,10(4H)-dione]: the IC50 in test [1] is 0.05 to 5 mM; in test [2], 1 to 10 µM; in test [3] it was 0.05 to 5 mM; in test [4], 5 to 20 mM; in test [5], 0.05 to 5 mM; in test [6], 0.05 to 5 mM. For the same molecule, the figures for the IC50 in test [7] and in test [8] were 5 to 20 mM and 0.05 to 5 mM, respectively.
In the case of `O=C1c2c(nc3c(C(F)(F)F)cccc3c2OCc2cccc(Cl)c2)-c2cccn21` [Compound 455b, 9-((3-chlorobenzyl)oxy)-5-(trifluoromethyl)-10H-pyrrolizino[1,2-b]quinolin-10-one], the 50% inhibitory concentration (IC50) in test [1] lay within 0.05 to 5 mM; in test [2], 1 to 10 µM; in test [3] it was 0.05 to 5 mM; in test [4], 5 to 20 mM; in test [5] it was 0.05 to 5 mM; in test [6] it was 0.05 to 5 mM. For the same molecule, the IC50 in test [7] and in test [8] was 0.05 to 5 mM each time.
In the case of `N#Cc1cccc2c(=O)c3c(n(Cc4ccccc4F)c12)-c1cccn1C3=O` [Compound 456a, 4-(2-Fluorobenzyl)-9,10-dioxo-4,10-dihydro-9H-pyrrolizino[1,2-b]quinoline-5-carbonitrile], the IC50 is 0.05 to 5 mM in test [1]; 1 to 10 µM in test [2]; 0.05 to 5 mM in test [3]; 0.05 to 5 mM in test [4]; 0.05 to 5 mM in test [5]; less than 0.05 mM in test [6]. Further, the IC50 in test [7] and in test [8] was 0.05 to 5 mM throughout.
For the molecule `N#Cc1cccc2c(OCc3ccccc3F)c3c(nc12)-c1cccn1C3=O` [Compound 456b, 9-((2-fluorobenzyl)oxy)-10-oxo-10H-pyrrolizino[1,2-b]quinoline-5-carbonitrile], the 50% inhibitory concentration (IC50) lay within 0.05 to 5 mM in test [1]; 1 to 10 µM in test [2]; 0.05 to 5 mM in test [3]; 0.05 to 5 mM in test [4]; 0.05 to 5 mM in test [5]; 0.05 to 5 mM in test [6]. The IC50 in test [7] and in test [8] was 0.05 to 5 mM throughout.
On to `O=C1c2c(n(Cc3ccccc3Cl)c3c(C(F)(F)F)cccc3c2=O)-c2cccn21` [Compound 457a, 4-(2-Chlorobenzyl)-5-(trifluoromethyl)-9H-pyrrolizino[1,2-b]quinoline-9,10(4H)-dione], for which the IC50 in test [1] is 0.05 to 5 mM; in test [2] it was 1 to 10 µM; in test [3], 0.05 to 5 mM; in test [4] it was 0.05 to 5 mM; in test [5], 0.05 to 5 mM; in test [6], less than 0.05 mM. Also, the IC50 in test [7] and in test [8] was 0.05 to 5 mM in each case.
Consider `O=C1c2c(nc3c(C(F)(F)F)cccc3c2OCc2ccccc2Cl)-c2cccn21` [Compound 457b, 9-((2-chlorobenzyl)oxy)-5-(trifluoromethyl)-10H-pyrrolizino[1,2-b]quinolin-10-one], for which the IC50 in test [1] was in the range of 0.05 to 5 mM; in test [2] it was 1 to 10 µM; in test [3] it was 0.05 to 5 mM; in test [4], 0.05 to 5 mM; in test [5] it was 0.05 to 5 mM; in test [6], 0.05 to 5 mM. Besides, the IC50 in test [7] and in test [8] was 0.05 to 5 mM throughout.

Broadly, the IC50 is the concentration that inhibits the measured activity by half.
